This note sets out measurements from ChEMBL document CHEMBL2311351, “Synthesis and biological evaluation of triazolothienopyrimidine derivatives as novel HIV-1 replication inhibitors” (Bioorg Med Chem Lett, 2013).

SMILES strings stand for the structures. pEC50: −log10 of the molar value.

Series [1] can be described thus: Therapeutic index, ratio of CC50 for human CEmx174 cells expressing LTR-GFP to EC50 for HIV1 LAI. To be noted: read-out: Ratio CC50/EC50.
Series [2] concerns Human immunodeficiency virus 1. Description: Antiviral activity against HIV1 LAI infected in CEMx174-LTR-GFP cells assessed as inhibition of viral replication after 5 days by fluorescence assay. Format: functional, organism-based. The settings on record: for pEC50: Human immunodeficiency virus 1, LAI, 120 h, read-out: EC50.
A short description of series [3]: Cytotoxicity against human CEmx174 cells expressing LTR-GFP. Format: cell-based.
For series [4], the system named is Human immunodeficiency virus 1. The series is described as follows: Antiviral activity against HIV1 LAI infected in CEMx174-LTR-GFP cells assessed as inhibition of viral replication at 10 uM after 5 days by fluorescence assay. To be noted: Human immunodeficiency virus 1, LAI, 120 h. The class given is functional.

Broadly, the pEC50 is −log10 of the EC50, conventionally taken in molar units. As usually defined, the CC50 is the concentration that lowers cell viability or growth by half. Take `O=S(=O)(c1cccc(Cl)c1)c1nnn2c1nc(Nc1ccccc1)c1sccc12`: in series [1], the selectivity ratio is above 21. For the same compound, the pEC50 in series [2] is 5.64. Moreover, the CC50 in series [3] is above 50 µM.

Turning to `Cc1ccc(S(=O)(=O)c2nnn3c2nc(NCCC(C)C)c2sccc23)cc1C`, in series [2], the pEC50 is 5.01.

Take `O=S(=O)(c1cccc(Cl)c1)c1nnn2c1nc(NC1CCCCC1)c1sccc12`: the selectivity ratio in series [1] is above 7.4. Further, in series [2], the pEC50 is 5.17. Also, the CC50 in series [3] is above 50 µM.

For the compound `Nc1nc2c(S(=O)(=O)c3cccc(Cl)c3)nnn2c2ccsc12`, the selectivity ratio in series [1] is above 31. The pEC50 in series [2] is 5.80. The CC50 in series [3] was above 50 µM.

`CC(C)Nc1nc2c(S(=O)(=O)c3cccc(Cl)c3)nnn2c2ccsc12`: the selectivity ratio in series [1] was above 22. Also, the pEC50 in series [2] is 5.66. Besides, the CC50 in series [3] is above 50 µM.

In the case of `O=S(=O)(c1cccc(Cl)c1)c1nnn2c1nc(N1CCCCCC1)c1sccc12`, the selectivity ratio in series [1] was found to be 8.7. In addition, the pEC50 in series [2] is 5.40. This compound also gave a CC50 in series [3] of 35 µM.

On to `O=S(=O)(c1cccc(Cl)c1)c1nnn2c1nc(N1CCOCC1)c1sccc12`, for which the selectivity ratio in series [1] stood at 274. Moreover, in series [2], the pEC50 was 6.57. This compound also yielded a CC50 in series [3] of 74 µM.

The inhibition is the change of the read-out against control, counted positive when it falls. In the case of `CC(C)CCNc1nc2c(S(=O)(=O)c3cccc(Cl)c3)nnn2c2ccsc12`, the inhibition at 10 µM in series [4] was determined as 58%.

Consider `COCCNc1nc2c(S(=O)(=O)c3cccc(Cl)c3)nnn2c2ccsc12`, for which the selectivity ratio in series [1] is above 26. Besides, the pEC50 in series [2] was 5.72. The compound also yielded a CC50 in series [3] above 50 µM.

Regarding `O=S(=O)(c1cccc(Cl)c1)c1nnn2c1nc(-c1ccccc1Cl)c1sccc12`, the selectivity ratio in series [1] was above 74. In addition, in series [2], the pEC50 was 6.17. This compound gave a half-maximal cytotoxic concentration (CC50) in series [3] above 50 µM.

For `O=S(=O)(c1cccc(Cl)c1)c1nnn2c1nc(-c1cccc(Cl)c1)c1sccc12`, the selectivity ratio in series [1] was 87. Moreover, the pEC50 in series [2] was 6.27. Besides, in series [3], half-maximal cytotoxicity (CC50) was put at 47 µM.

Take `O=S(=O)(c1cccc(Cl)c1)c1nnn2c1nc(-c1ccc(Cl)cc1)c1sccc12`: in series [1], the selectivity ratio came out at 86. Also, in series [2], the pEC50 is 6.28. For the same compound, the CC50 in series [3] worked out at 46 µM.

As to `COc1ccccc1-c1nc2c(S(=O)(=O)c3cccc(Cl)c3)nnn2c2ccsc12`, the selectivity ratio in series [1] was 34. For the same compound, the pEC50 in series [2] is 5.89. Besides, it took 45 µM to reach half-maximal cytotoxicity in series [3] (CC50).

As to `COc1cccc(-c2nc3c(S(=O)(=O)c4cccc(Cl)c4)nnn3c3ccsc23)c1`, the selectivity ratio in series [1] stood at 143. Moreover, the pEC50 in series [2] is 6.49. In series [3], this compound returned a CC50 of 46 µM.

Take `COc1ccc(-c2nc3c(S(=O)(=O)c4cccc(Cl)c4)nnn3c3ccsc23)cc1`: in series [1], the selectivity ratio amounted to 1000. The pEC50 in series [2] was 7.22. In series [3], this compound yielded a CC50 of 60 µM.

For the compound `CCOc1ccc(-c2nc3c(S(=O)(=O)c4cccc(Cl)c4)nnn3c3ccsc23)cc1`, the selectivity ratio in series [1] is 119. Moreover, the pEC50 in series [2] is 6.29. This compound also returned a CC50 in series [3] of 61 µM.

On to `O=S(=O)(c1cccc(Cl)c1)c1nnn2c1nc(-c1ccc(O)cc1)c1sccc12`, for which, in series [1], the selectivity ratio worked out at 11. Moreover, the pEC50 in series [2] is 6.06. This compound showed a CC50 in series [3] of 10 µM.

For the compound `CN(C)c1ccc(-c2nc3c(S(=O)(=O)c4cccc(Cl)c4)nnn3c3ccsc23)cc1`, in series [1], the selectivity ratio was above 16. Further, the pEC50 in series [2] is 5.51. Further, the CC50 in series [3] was above 50 µM.

For `CN1CCN(c2nc3c(S(=O)(=O)c4cccc(Cl)c4)nnn3c3ccsc23)CC1`, the selectivity ratio in series [1] is above 23. Besides, in series [2], the pEC50 is 5.68. This compound also showed a CC50 in series [3] above 50 µM.

With `O=S(=O)(c1cccc(Cl)c1)c1nnn2c1nc(N1CCN(Cc3ccccc3)CC1)c1sccc12`, the selectivity ratio in series [1] was above 70. The pEC50 in series [2] is 6.15. Further, the CC50 in series [3] is above 50 µM.

In the case of `CCS(=O)(=O)c1nnn2c1nc(N1CCOCC1)c1sccc12`, the EC50 entry in series [2] is “Not Active”. This compound also returned a CC50 in series [3] above 50 µM.

For the compound `O=S(=O)(c1ccccc1)c1nnn2c1nc(N1CCOCC1)c1sccc12`, the selectivity ratio in series [1] was 2.4. For the same compound, in series [2], the pEC50 was 4.80. Also, the CC50 in series [3] is 39 µM.

As to `O=S(=O)(c1nnn2c1nc(N1CCOCC1)c1sccc12)C1CCCCC1`, the EC50 entry in series [2] is on record as “Not Active”. Further, in series [3], the CC50 is above 50 µM.

Turning to `O=S(=O)(c1ccccc1Cl)c1nnn2c1nc(N1CCOCC1)c1sccc12`, the selectivity ratio in series [1] was determined as 50. The pEC50 in series [2] is 5.96. In addition, in series [3], it took 56 µM to reach half-maximal cytotoxicity (CC50).

Take `O=S(=O)(c1ccc(Cl)cc1)c1nnn2c1nc(N1CCOCC1)c1sccc12`: the selectivity ratio in series [1] came out at 14. Also, the pEC50 in series [2] is 5.30. This compound also returned a CC50 in series [3] of 70 µM.

For the compound `COc1cccc(S(=O)(=O)c2nnn3c2nc(N2CCOCC2)c2sccc23)c1`, in series [1], the selectivity ratio is above 45. Also, the pEC50 in series [2] is 5.96. The compound also came in with a CC50 in series [3] above 50 µM.

For the compound `O=S(=O)(c1cccc(F)c1)c1nnn2c1nc(N1CCOCC1)c1sccc12`, in series [1], the selectivity ratio is above 58. Besides, the pEC50 in series [2] was 6.07. Also, the CC50 in series [3] is above 50 µM.

Turning to `O=S(=O)(c1cccc(Br)c1)c1nnn2c1nc(N1CCOCC1)c1sccc12`, the selectivity ratio in series [1] is above 15. For the same compound, the pEC50 in series [2] is 5.48. In series [3], the CC50 is above 50 µM.

With `O=S(=O)(c1cccc(OC(F)(F)F)c1)c1nnn2c1nc(N1CCOCC1)c1sccc12`, the selectivity ratio in series [1] was above 5. The pEC50 in series [2] is 5.00. The same compound yielded a CC50 in series [3] above 50 µM.

On to `O=S(=O)(c1cc(Cl)cc(Cl)c1)c1nnn2c1nc(N1CCOCC1)c1sccc12`, for which the selectivity ratio in series [1] was 12.7. In addition, in series [2], the pEC50 was 5.40. The same compound returned a CC50 in series [3] of 51 µM.

As for `CCOC(=O)c1nnn2c1nc(N1CCOCC1)c1sccc12`, the selectivity ratio in series [1] was above 62. Besides, the negative logarithm of the EC50 (pEC50) in series [2] is 6.10. Moreover, the CC50 in series [3] was above 50 µM.

`O=C(O)c1nnn2c1nc(N1CCOCC1)c1sccc12`: the selectivity ratio in series [1] was determined as 8.7. Also, in series [2], the pEC50 is 5.32. For the same compound, it took 42 µM to reach half-maximal cytotoxicity in series [3] (CC50).

Take `O=C(Nc1ccccc1Cl)c1nnn2c1nc(N1CCOCC1)c1sccc12`: the selectivity ratio in series [1] is above 14. The pEC50 in series [2] is 5.46. The same compound returned a CC50 in series [3] above 50 µM.

As to `O=C(Nc1cccc(Cl)c1)c1nnn2c1nc(N1CCOCC1)c1sccc12`, the selectivity ratio in series [1] was above 135. The pEC50 in series [2] is 6.43. For the same compound, the CC50 in series [3] is above 50 µM.

Turning to `O=C(Nc1ccc(Cl)cc1)c1nnn2c1nc(N1CCOCC1)c1sccc12`, in series [1], the selectivity ratio came to 3.5. Further, in series [2], the pEC50 was 4.80. For the same compound, the CC50 in series [3] is 57 µM.

As for `O=C(c1cccc(Cl)c1)c1nnn2c1nc(N1CCOCC1)c1sccc12`, the selectivity ratio in series [1] is above 53. The pEC50 in series [2] was 6.03. Further, the CC50 in series [3] is above 50 µM.

Consider `O=S(=O)(c1cccc(Cl)c1)c1nnn2c1nc(-c1ccccc1)c1sccc12`, for which the selectivity ratio in series [1] was 225. Besides, the pEC50 in series [2] is 6.57. The CC50 in series [3] was found to be 61 µM.

Consider `Cc1ccc(-c2nc3c(S(=O)(=O)c4cccc(Cl)c4)nnn3c3ccsc23)cc1`, for which the selectivity ratio in series [1] amounted to 72. In series [2], the pEC50 is 6.08. Also, in series [3], it took 61 µM to reach half-maximal cytotoxicity (CC50).

For `CN(c1ccccc1)c1nc2c(S(=O)(=O)c3cccc(Cl)c3)nnn2c2ccsc12`, the selectivity ratio in series [1] is above 23. The pEC50 in series [2] is 5.68. In series [3], this compound gave a CC50 above 50 µM.

Turning to `O=S(=O)(c1cccc(Cl)c1)c1nnn2c1nc(N1CCCCC1)c1sccc12`, the selectivity ratio in series [1] is 394. Moreover, the pEC50 in series [2] is 6.72. In series [3], the CC50 was 75 µM.

Take `Cc1ccnc2c1NC(=O)c1cccnc1N2C1CC1` [NEVIRAPINE]: the pEC50 in series [2] was 6.82. The CC50 in series [3] is above 10 µM.
